Data: ChEMBL document CHEMBL1156163, “(18)F Labeled benzimidazole derivatives as potential radiotracer for positron emission tomography (PET) tumor imaging” (Bioorg Med Chem, 2010)

Assays:
Heart [1] = experiment: Biodistribution in mouse S180 cells xenografted Kunming mouse heart at 10 to 20 uCi, iv after 30 mins by gamma counting; assay type: ADME, organism-based, CCRF S-180; details: in vivo, 0.5 h
Lung [2] = experiment: Biodistribution in mouse S180 cells xenografted Kunming mouse lung at 10 to 20 uCi, iv after 5 mins by gamma counting; assay type: ADME, organism-based, CCRF S-180; details: in vivo
Blood [3] = experiment: Biodistribution in mouse S180 cells xenografted Kunming mouse blood at 10 to 20 uCi, iv after 15 mins by gamma counting; assay type: ADME, organism-based, CCRF S-180; details: in vivo, 0.25 h
Pancreas [4] = experiment: Biodistribution in mouse S180 cells xenografted Kunming mouse pancreas at 10 to 20 uCi, iv after 15 mins by gamma counting; assay type: ADME, organism-based, CCRF S-180; details: in vivo, 0.25 h
Liver [5] = experiment: Biodistribution in mouse S180 cells xenografted Kunming mouse liver at 10 to 20 uCi, iv after 15 mins by gamma counting; assay type: ADME, organism-based, CCRF S-180; details: in vivo, 0.25 h
Pancreas [6] = experiment: Biodistribution in mouse S180 cells xenografted Kunming mouse pancreas at 10 to 20 uCi, iv after 30 mins by gamma counting; assay type: ADME, organism-based, CCRF S-180; details: in vivo, 0.5 h
[7] = Ratio of drug uptake in tumor to brain of mouse S180 cells xenografted Kunming mouse at 10 to 20 uCi, iv after 5 mins by gamma counting; assay type: ADME, organism-based, CCRF S-180; details: in vivo
Blood [8] = experiment: Biodistribution in mouse S180 cells xenografted Kunming mouse blood at 10 to 20 uCi, iv after 5 mins by gamma counting; assay type: ADME, organism-based, CCRF S-180; details: in vivo
Pancreas [9] = experiment: Biodistribution in mouse S180 cells xenografted Kunming mouse pancreas at 10 to 20 uCi, iv after 5 mins by gamma counting; assay type: ADME, organism-based, CCRF S-180; details: in vivo
Liver [10] = experiment: Biodistribution in mouse S180 cells xenografted Kunming mouse liver at 10 to 20 uCi, iv after 120 mins by gamma counting; assay type: ADME, organism-based, CCRF S-180; details: in vivo, 2 h
[11] = Ratio of drug uptake in tumor to blood of mouse S180 cells xenografted Kunming mouse at 10 to 20 uCi, iv after 120 mins by gamma counting; assay type: ADME, organism-based, CCRF S-180; details: tumour, 2 h
[12] = Ratio of drug uptake in tumor to muscle of mouse S180 cells xenografted Kunming mouse at 10 to 20 uCi, iv after 15 mins by gamma counting; assay type: ADME, organism-based, CCRF S-180; details: in vivo, 0.25 h
Kidney [13] = experiment: Biodistribution in mouse S180 cells xenografted Kunming mouse kidney at 10 to 20 uCi, iv after 120 mins by gamma counting; assay type: ADME, organism-based, CCRF S-180; details: in vivo, 2 h
[14] = Ratio of drug uptake in tumor to blood of mouse S180 cells xenografted Kunming mouse at 10 to 20 uCi, iv after 60 mins by gamma counting; assay type: ADME, organism-based, CCRF S-180; details: tumour, 1 h
Brain [15] = experiment: Biodistribution in mouse S180 cells xenografted Kunming mouse brain at 10 to 20 uCi, iv after 5 mins by gamma counting; assay type: ADME, organism-based, CCRF S-180; details: in vivo
Heart [16] = experiment: Biodistribution in mouse S180 cells xenografted Kunming mouse heart at 10 to 20 uCi, iv after 120 mins by gamma counting; assay type: ADME, organism-based, CCRF S-180; details: in vivo, 2 h
[17] = Biodistribution in mouse S180 cells xenografted Kunming mouse tumor at 10 to 20 uCi, iv after 5 mins by gamma counting; assay type: ADME, organism-based, Neoplasm, CCRF S-180; details: in vivo
Kidney [18] = experiment: Biodistribution in mouse S180 cells xenografted Kunming mouse kidney at 10 to 20 uCi, iv after 5 mins by gamma counting; assay type: ADME, organism-based, CCRF S-180; details: in vivo
[19] = Ratio of drug uptake in tumor to muscle of mouse S180 cells xenografted Kunming mouse at 10 to 20 uCi, iv after 30 mins by gamma counting; assay type: ADME, organism-based, CCRF S-180; details: in vivo, 0.5 h
[20] = Ratio of drug uptake in tumor to brain of mouse S180 cells xenografted Kunming mouse at 10 to 20 uCi, iv after 120 mins by gamma counting; assay type: ADME, organism-based, CCRF S-180; details: in vivo, 2 h
Lung [21] = experiment: Biodistribution in mouse S180 cells xenografted Kunming mouse lung at 10 to 20 uCi, iv after 120 mins by gamma counting; assay type: ADME, organism-based, CCRF S-180; details: in vivo, 2 h
Liver [22] = experiment: Biodistribution in mouse S180 cells xenografted Kunming mouse liver at 10 to 20 uCi, iv after 60 mins by gamma counting; assay type: ADME, organism-based, CCRF S-180; details: in vivo, 1 h
Liver [23] = experiment: Biodistribution in mouse S180 cells xenografted Kunming mouse liver at 10 to 20 uCi, iv after 5 mins by gamma counting; assay type: ADME, organism-based, CCRF S-180; details: in vivo
[24] = Ratio of drug uptake in tumor to brain of mouse S180 cells xenografted Kunming mouse at 10 to 20 uCi, iv after 60 mins by gamma counting; assay type: ADME, organism-based, CCRF S-180; details: in vivo, 1 h
[25] = Biodistribution in mouse S180 cells xenografted Kunming mouse tumor at 10 to 20 uCi, iv after 30 mins by gamma counting; assay type: ADME, organism-based, Neoplasm, CCRF S-180; details: in vivo, 0.5 h
Pancreas [26] = experiment: Biodistribution in mouse S180 cells xenografted Kunming mouse pancreas at 10 to 20 uCi, iv after 120 mins by gamma counting; assay type: ADME, organism-based, CCRF S-180; details: in vivo, 2 h
[27] = Ratio of drug uptake in tumor to blood of mouse S180 cells xenografted Kunming mouse at 10 to 20 uCi, iv after 5 mins by gamma counting; assay type: ADME, organism-based, CCRF S-180; details: tumour
Brain [28] = experiment: Biodistribution in mouse S180 cells xenografted Kunming mouse brain at 10 to 20 uCi, iv after 60 mins by gamma counting; assay type: ADME, organism-based, CCRF S-180; details: in vivo, 1 h
Kidney [29] = experiment: Biodistribution in mouse S180 cells xenografted Kunming mouse kidney at 10 to 20 uCi, iv after 60 mins by gamma counting; assay type: ADME, organism-based, CCRF S-180; details: in vivo, 1 h
Muscle tissue = experiment: Biodistribution in mouse S180 cells xenografted Kunming mouse muscle at 10 to 20 uCi, iv after 5 mins by gamma counting; assay type: ADME, organism-based, CCRF S-180; details: in vivo
[30] = Biodistribution in mouse S180 cells xenografted Kunming mouse tumor at 10 to 20 uCi, iv after 60 mins by gamma counting; assay type: ADME, organism-based, Neoplasm, CCRF S-180; details: in vivo, 1 h
Brain [31] = experiment: Biodistribution in mouse S180 cells xenografted Kunming mouse brain at 10 to 20 uCi, iv after 30 mins by gamma counting; assay type: ADME, organism-based, CCRF S-180; details: in vivo, 0.5 h
Brain [32] = experiment: Biodistribution in mouse S180 cells xenografted Kunming mouse brain at 10 to 20 uCi, iv after 15 mins by gamma counting; assay type: ADME, organism-based, CCRF S-180; details: in vivo, 0.25 h
[33] = Ratio of drug uptake in tumor to muscle of mouse S180 cells xenografted Kunming mouse at 10 to 20 uCi, iv after 60 mins by gamma counting; assay type: ADME, organism-based, CCRF S-180; details: in vivo, 1 h
Blood [34] = experiment: Biodistribution in mouse S180 cells xenografted Kunming mouse blood at 10 to 20 uCi, iv after 60 mins by gamma counting; assay type: ADME, organism-based, CCRF S-180; details: in vivo, 1 h
Lung [35] = experiment: Biodistribution in mouse S180 cells xenografted Kunming mouse lung at 10 to 20 uCi, iv after 15 mins by gamma counting; assay type: ADME, organism-based, CCRF S-180; details: in vivo, 0.25 h
Kidney [36] = experiment: Biodistribution in mouse S180 cells xenografted Kunming mouse kidney at 10 to 20 uCi, iv after 15 mins by gamma counting; assay type: ADME, organism-based, CCRF S-180; details: in vivo, 0.25 h
Blood [37] = experiment: Biodistribution in mouse S180 cells xenografted Kunming mouse blood at 10 to 20 uCi, iv after 30 mins by gamma counting; assay type: ADME, organism-based, CCRF S-180; details: in vivo, 0.5 h
Lung [38] = experiment: Biodistribution in mouse S180 cells xenografted Kunming mouse lung at 10 to 20 uCi, iv after 60 mins by gamma counting; assay type: ADME, organism-based, CCRF S-180; details: in vivo, 1 h
Brain [39] = experiment: Biodistribution in mouse S180 cells xenografted Kunming mouse brain at 10 to 20 uCi, iv after 120 mins by gamma counting; assay type: ADME, organism-based, CCRF S-180; details: in vivo, 2 h
[40] = Ratio of drug uptake in tumor to blood of mouse S180 cells xenografted Kunming mouse at 10 to 20 uCi, iv after 15 mins by gamma counting; assay type: ADME, organism-based, CCRF S-180; details: tumour, 0.25 h
Heart [41] = experiment: Biodistribution in mouse S180 cells xenografted Kunming mouse heart at 10 to 20 uCi, iv after 5 mins by gamma counting; assay type: ADME, organism-based, CCRF S-180; details: in vivo
[42] = Ratio of drug uptake in tumor to muscle of mouse S180 cells xenografted Kunming mouse at 10 to 20 uCi, iv after 5 mins by gamma counting; assay type: ADME, organism-based, CCRF S-180; details: in vivo

A Drug uptake (Heart [1]) of 2.69 % ID/g, a Drug uptake (Lung [2]) of 1.52 % ID/g and a Drug uptake (Blood [3]) of 0.46 % ID/g were found for `OC[C@H]1O[C@@H](O)[C@H]([18F])[C@@H](O)[C@@H]1O` [FLUDEOXYGLUCOSE-F18] in this work. It also gave a Drug uptake (Pancreas [4]) of 0.95 % ID/g, a Drug uptake (Liver [5]) of 0.47 % ID/g and a Drug uptake (Pancreas [6]) of 0.9 % ID/g. The Ratio [7] was 0.53, the Drug uptake (Blood [8]) was 1.09 % ID/g and the Drug uptake (Pancreas [9]) was 1.31 % ID/g. It also gave a Drug uptake (Liver [10]) of 0.2 % ID/g, a Ratio [11] of 15.85 and a Ratio [12] of 1.37. For the same compound, the Drug uptake (Kidney [13]) was 0.25 % ID/g, the Ratio [14] was 19.47 and the Drug uptake (Brain [15]) was 2.4 % ID/g. It also gave a Drug uptake (Heart [16]) of 6.27 % ID/g, a Drug uptake [17] of 1.27 % ID/g and a Drug uptake (Kidney [18]) of 2.16 % ID/g. For the same compound, the Ratio [19] was 1.75, the Ratio [20] was 1.33 and the Drug uptake (Lung [21]) was 0.52 % ID/g. It also gave a Drug uptake (Liver [22]) of 0.22 % ID/g, a Drug uptake (Liver [23]) of 1.35 % ID/g and a Ratio [24] of 1.02. For the same compound, the Drug uptake [25] was 1.86 % ID/g, the Drug uptake (Pancreas [26]) was 0.78 % ID/g and the Ratio [27] was 1.17. It also gave a Drug uptake (Brain [28]) of 2.11 % ID/g, a Drug uptake (Kidney [29]) of 0.54 % ID/g and a Drug uptake (Muscle tissue) of 1.56 % ID/g. For the same compound, the Drug uptake [30] was 2.16 % ID/g, the Drug uptake (Brain [31]) was 3.07 % ID/g and the Drug uptake (Brain [32]) was 2.63 % ID/g. The Ratio [33] was 2.23, the Drug uptake (Blood [34]) was 0.11 % ID/g and the Drug uptake (Lung [35]) was 0.77 % ID/g. For the same compound, the Drug uptake (Kidney [36]) was 1.04 % ID/g, the Drug uptake (Blood [37]) was 0.16 % ID/g and the Drug uptake (Lung [38]) was 0.57 % ID/g. The Drug uptake (Brain [39]) was 1.28 % ID/g, the Ratio [40] was 3.42 and the Drug uptake (Heart [41]) was 2.6 % ID/g. It also gave a Ratio [42] of 0.81.
